# Patent publication US20240415828A1, “TLR7 AGONIST AND COMBINATIONS FOR CANCER TREATMENT” (BIONTECH SE, priority 2021, published 2024)
# Columns and labels:
# [1] = system: solid tumor; assay: Clinical trial Part 1A, BNT411 monotherapy dose escalation; type: in vivo, human
# Method: FIG. 8. Release of certain cytokines from preparations obtained from whole blood of human patients treated with BNT411 at various dose levels. Mean maximum fold change (+SD) calculated from the highest cytokine value observed on day 1 in treatment cycle 1 relative to baseline. IFNα and IL-6 peaked 4 to 8 hours after treatment, IP-10 and TNFa peaked 2.5 to 8 hours after treatment.
# To this end, a trial was designed to assess the safety profile of BNT411 in monotherapy and in combination with atezolizumab, etoposide, and carboplatin (atezo/EC) and to determine the maximum tolerated dose/recommended phase 2 dose (MTD/RP2D). This trial comprised two parts (1A and 1B) with dose escalation, wherein the patients of part 1A received BNT411 monotherapy and patients of part 1B received BNT411 together with atezolizumab, etoposide, and carboplatin. The patients had solid tumor (preferably ES-SCLC for part 1B) and received the drugs according to the following dosing schedule (until disease progression, unacceptable toxicity, or death): • Part 1A: 3-week cycles, BNT411 i.v. Q1W for 4 cycles, then Q3W • Part 1B: 3-week cycles, BNT411 i.v. Q1W for 4 cycles, then Q3W; atezo/EC Q3W
# DL1-DL3 of Part 1A were single-patient cohorts, all other dose levels were 3+3 cohorts.
# Efficacy was assessed by CT/MRI imaging according to RECIST 1.1 and iRECIST every 6 weeks for 48 weeks, and every 12 weeks thereafter. Safety was assessed by physical examination, vital signs, electrocardiogram, clinical laboratory assessments, eye examinations, ECOG, pregnancy testing, and ECHO/MUGA. Biomarker assessments included tumor biopsies and blood sampling for cytokine analysis, immune phenotyping, tumor mutational burden, and TCR profiling.
# As of Aug. 26, 2021, the patients were located in seven trial centers (UK, USA, Spain, Germany). Twenty-five patients were screened (Part 1A: 22; Part 1B: 3) with seven screen failures (all Part 1A). Eighteen patients enrolled (Part 1A: 15; Part 1B: 3), wherein fifteen patients were evaluable (Part 1A: 12; Part 1B: 3). Two Part 1A patients were replaced (at DL1 due to incorrect dosing and at DL5 due to PD before DLT evaluation completed). One Part 1A patient dropped out of trial before receiving treatment.
# The trial population consists of histologically confirmed solid tumor patients with metastatic or unresectable disease for which there is no available standard therapy likely to confer clinical benefit, or patients who are not candidates for such available therapy.
# [2] = system: CT26 colon carcinoma cells; assay: CT26 tumor model, BNT411 alone (Example 3); type: in vivo, mouse
# Method: FIG. 4. Anti-tumoral efficacy of BNT411 alone in a tumor mouse model. Mice (n=12 or 13 per group) subcutaneously inoculated with 5×10^5 CT26 colon carcinoma cells were used as tumor mouse model. BNT411 was administered i.v. at a dose level of 3 mg/kg eight times with 4 to 5 days interval (on days 14, 19, 23, 28, 33, 37, 42, and 47). A control group (n=13) received vehicle alone. Adaptive immunity was evaluated by analyzing gp70-antigen-specific T cell populations in blood and splenocytes 3 and 5 weeks after the first study drug administration. (A) Dosing schedule. (B) Graph showing the tumor volumes vs. days after inoculation. Group mean tumor volumes for all live animals are shown. Additionally, tumor volumes of animals that were euthanized due to tumor load were carried forward for as long as they were larger than the group median tumor volume (SEM: standard error of the mean; LOCF: last observation carried forward values).
# Serum levels of IFNα were measured by sandwich ELISA (Pbl Assay Systems) according to manufacturer's instructions.
# BALB/c mice were inoculated s.c. with 2.5×10^5−5×10^5 CT26-WT into the flank, respectively. Once tumors reached palpable sizes, mice were randomly divided into treatment and control groups. Tumor volume was measured unblinded with a caliper and calculated using the formula (a×b^2)/2 (a being the largest and b being the smallest diameter of the tumor). Tumor growth was documented as mean tumor size with standard error disregarding single distant outliers. Treatment was initiated after 7-10 d with tumors having reached an average volume of about 10 mm^3. 3 mg/kg (75 μg/mouse; BALB/c mice) BNT411 was administered by i.v. injection to the retro-orbital venous plexus. Control groups received an equal volume of 100 μl saline vehicle (0.1% 1 M HCl, 0.1% 1 M NaOH, 99.8% isotonic NaCl solution pH 5.63).
# Eight doses of BNT411 were administered i.v. at a dose level of 3 mg/kg eight times with 4 to 5 days interval (on days 14, 19, 23, 28, 33, 37, 42, and 47); cf., FIG. 4A. […] A control group (n=13) received vehicle alone. Adaptive immunity was evaluated by analyzing gp70-antigen-specific T cell populations in blood and splenocytes 3 and 5 weeks after the first study drug administration. Gp70 is the immune dominant CD8^+ T-cell recognized antigen of the CT26 tumor model.
# [3] = Part 1A, patients (%), as of Aug. 26, 2021
# [4] = Part 1A, patients, as of Aug. 26, 2021
structure (smiles),measurement,setting,value
COCCc1nc2c(N)nc3ccccc3c2n1CCCCN(C(C)=O)C1CCOCC1 [BNT411],cytokine changes,"[1]; DL1A, DL2A, or DL3A (0.05-0.45 μg/kg)",No meaningful cytokine changes
same,induction of IFN-a and IP-10,"[1]; DL5 onwards, substantially starting at DL6, data update October 2022",increased
same,IL-6 induction,[1]; DL6A,some increase
same,IP-10 level relative to assay range,[1]; DL6A,upper limit of detection of the assay was reached
same,"induction of IFNa, IP-10, and other mode-of-action relevant cytokines",[1]; DL6A (4.8 μg/kg),substantial induction
same,"tumor response (RECIST 1.1), third patient","[1]; DL7, trial Day 251, still on treatment",partial response
same,"dose limiting toxicity (DLT), or related grade 4-5 AEs",[1]; Part 1A,no
same,"TEAEs related to BNT411 monotherapy: Anaemia, Grade 4",[1]; [3],2 (13%)
same,"TEAEs related to BNT411 monotherapy: Blood bilirubin increased, Grade 4",[1]; [3],1 (7%)
same,"TEAEs related to BNT411 monotherapy: Chills, Grade 4",[1]; [3],2 (13%)
same,"TEAEs related to BNT411 monotherapy: Diarrhoea, Grade 4",[1]; [3],1 (7%)
same,"TEAEs related to BNT411 monotherapy: Fatigue, Grade 4",[1]; [3],1 (7%)
same,"TEAEs related to BNT411 monotherapy: Headache, Grade 4",[1]; [3],1 (7%)
same,"TEAEs related to BNT411 monotherapy: Hyperbilirubinaemia, Grade 4",[1]; [3],1 (7%)
same,"TEAEs related to BNT411 monotherapy: Hypotension, Grade 4",[1]; [3],1 (7%)
same,"TEAEs related to BNT411 monotherapy: Illness, Grade 4",[1]; [3],1 (7%)
same,"TEAEs related to BNT411 monotherapy: Infusion related reaction, Grade 4",[1]; [3],1 (7%)
same,"TEAEs related to BNT411 monotherapy: Nausea, Grade 4",[1]; [3],1 (7%)
same,"TEAEs related to BNT411 monotherapy: Neutropenia, Grade 4",[1]; [3],1 (7%)
same,"TEAEs related to BNT411 monotherapy: Pruritus, Grade 4",[1]; [3],1 (7%)
same,"TEAEs related to BNT411 monotherapy: Pyrexia, Grade 4",[1]; [3],3 (20%)
same,"TEAEs related to BNT411 monotherapy: Total number of patients with TEAEs, Grade 4",[1]; [3],7 (47%)
same,"TEAEs related to BNT411 monotherapy: Anaemia, Grade 1",[1]; [4],1
same,"TEAEs related to BNT411 monotherapy: Anaemia, Grade 3",[1]; [4],1
same,"TEAEs related to BNT411 monotherapy: Blood bilirubin increased, Grade 1",[1]; [4],1
same,"TEAEs related to BNT411 monotherapy: Chills, Grade 1",[1]; [4],2
same,"TEAEs related to BNT411 monotherapy: Diarrhoea, Grade 2",[1]; [4],1
same,"TEAEs related to BNT411 monotherapy: Fatigue, Grade 2",[1]; [4],1
same,"TEAEs related to BNT411 monotherapy: Headache, Grade 1",[1]; [4],1
same,"TEAEs related to BNT411 monotherapy: Hyperbilirubinaemia, Grade 1",[1]; [4],1
same,"TEAEs related to BNT411 monotherapy: Hypotension, Grade 1",[1]; [4],1
same,"TEAEs related to BNT411 monotherapy: Illness, Grade 1",[1]; [4],1
same,"TEAEs related to BNT411 monotherapy: Infusion related reaction, Grade 2",[1]; [4],1
same,"TEAEs related to BNT411 monotherapy: Nausea, Grade 1",[1]; [4],1
same,"TEAEs related to BNT411 monotherapy: Neutropenia, Grade 1",[1]; [4],1
same,"TEAEs related to BNT411 monotherapy: Pruritus, Grade 1",[1]; [4],1
same,"TEAEs related to BNT411 monotherapy: Pyrexia, Grade 1",[1]; [4],1
same,"TEAEs related to BNT411 monotherapy: Pyrexia, Grade 2",[1]; [4],2
same,safety profile,"[1]; all doses tested as of Aug. 26, 2021 (up to DL6)",acceptable safety profile
same,time of IFNa and IL-6 peak after treatment,"[1]; day 1, treatment cycle 1",4 to 8 h
same,time of IP-10 and TNFa peak after treatment,"[1]; day 1, treatment cycle 1",2.5 to 8 h
same,"AEs related to BNT411 monotherapy: chills, share of patients","[1]; grade 1, Part 1A DL1 and DL6",13%
same,"AEs related to BNT411 monotherapy: pyrexia, share of patients","[1]; grades 1 and 2, Part 1A DLs 1*, 2, and 6",20%
same,"AEs related to BNT411 monotherapy: anaemia, share of patients","[1]; grades 1 and 3, Part 1A DL4 and DL5",13%
same,"tumor response (RECIST 1.1), second patient","[1]; intermediate dose level between DL6 and DL7, as of Day 420",stable disease
same,"change in sum of target lesion diameters compared with baseline, second patient","[1]; intermediate dose level between DL6 and DL7, trial Day 86",−26.2%
same,cytokine release,"[1]; ten patients, DL4A, DL5A, DL6A",dose-dependent cytokine release
same,serious adverse events with a possible causal relationship to BNT411 monotherapy,"[1]; two cases of infusion-related reaction, grades 1 and 2, same patient, Part 1A DL6",Two
same,"tumor response (RECIST 1.1), patient started at DL4, increased to DL5 (C8D1) and DL6 (C12D1)","[1]; until trial Day 449, cutoff Oct. 13, 2022",stable disease
same,overall safety profile,"[1]; up to DL6, data update October 2022",acceptable overall safety profile
same,TNFa induction levels,[1]; up to DL6A,remained unchanged
same,"tumor growth inhibition, test/control value","[2]; 3 mg/kg i.v. eight times, day 35",43.3%
same,animals still alive,"[2]; 3 mg/kg i.v., day 49, last day of the experiment",8 of 13
same,increase in blood IFNα levels compared with the control group,"[2]; 1 h after the first dosing, 3 mg/kg i.v.",50 fold
same,frequency of gp70+ T-cells in blood,[2]; day 35,8.72%
same,frequency of gp70+ T-cells in splenocytes,[2]; day 50,0.76%
same,"blood parameters (alanine transaminase, aspartate transaminase, creatine kinase, glutamate dehydrogenase, lactate dehydrogenase, bilirubin) vs control group","[2]; serum, day 19",comparable
